Results reported in PubChem BioAssay AID1963965 (Molecular Pharmacology Branch, DTP, NCI, 2024).

System: 996289-038-R-J1-PDC spheroid viability
Experiment: Anticancer human tumor 996289-038-R-J1-PDC patient-derived colon adenocarcinoma cell line growth inhibition [PI3K]
Settings: spheroids with HUVEC and MSC; for IC50: curve of first compound; for viability, T/C: stronger effect = lower value
Procedure, shortened: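 Agents were dosed from a top concentration near clinical Cmax (otherwise 10 microM) in half-log decrements, alone or combined with PI3K inhibitors. The spheroids contain tumor cells plus endothelial (HUVEC) and MSC stroma; viability is measured.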

[1] = second compound 0.0316 µM, first compound 0.0316 µM
[2] = second compound 0.0316 µM, first compound 0.1 µM
[3] = second compound 0.0316 µM, first compound 0.316 µM
[4] = second compound 0.0316 µM, first compound 1 µM
[5] = second compound 0.0316 µM, first compound 3.16 µM
[6] = second compound 0.0316 µM, first compound 10 µM
[7] = second compound 0.1 µM, first compound 0.0316 µM
[8] = second compound 0.1 µM, first compound 0.1 µM
[9] = second compound 0.1 µM, first compound 0.316 µM
[10] = second compound 0.1 µM, first compound 1 µM
[11] = second compound 0.1 µM, first compound 3.16 µM
[12] = second compound 0.1 µM, first compound 10 µM
[13] = second compound 0.316 µM, first compound 0.0316 µM
[14] = second compound 0.316 µM, first compound 0.1 µM
[15] = second compound 0.316 µM, first compound 0.316 µM
[16] = second compound 0.316 µM, first compound 1 µM
[17] = second compound 0.316 µM, first compound 3.16 µM
[18] = second compound 0.316 µM, first compound 10 µM
[19] = second compound 1 µM, first compound 0.0316 µM
[20] = second compound 1 µM, first compound 0.1 µM
[21] = second compound 1 µM, first compound 0.316 µM
[22] = second compound 1 µM, first compound 1 µM
[23] = second compound 1 µM, first compound 3.16 µM
[24] = second compound 1 µM, first compound 10 µM
[25] = second compound 3.16 µM, first compound 0.0316 µM
[26] = second compound 3.16 µM, first compound 0.1 µM
[27] = second compound 3.16 µM, first compound 0.316 µM
[28] = second compound 3.16 µM, first compound 1 µM
[29] = second compound 3.16 µM, first compound 3.16 µM
[30] = second compound 3.16 µM, first compound 10 µM
[31] = second compound 10 µM, first compound 0.0316 µM
[32] = second compound 10 µM, first compound 0.1 µM
[33] = second compound 10 µM, first compound 0.316 µM
[34] = second compound 10 µM, first compound 1 µM
[35] = second compound 10 µM, first compound 3.16 µM
[36] = second compound 10 µM, first compound 10 µM
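Further: spheroids exposed to compounds for seven days before viability read.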
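Wherever viability, T/C is given: luminescence used as a proxy for viable cell amount; percent viability relative to DMSO vehicle control as 100%.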

## Cn1ncc(Cl)c1-c1cc(C(=O)NC(CN)Cc2cccc(F)c2)sc1Cl (centres undefined) + CC(Nc1ncnc2nc[nH]c12)c1cc2cccc(Cl)c2c(=O)n1-c1ccccc1
Second compound 0.0316 µM
  IC50: > 10 µM
Second compound 0.1 µM
  IC50: > 10 µM
Second compound 0.316 µM
  IC50: > 10 µM
Second compound 1 µM
  IC50: 9.38 µM
Second compound 3.16 µM
  IC50: 7.97 µM
Second compound 10 µM
  IC50: 5.1 µM
[1]
  viability, T/C: 92.2%
[2]
  viability, T/C: 92.1%
[3]
  viability, T/C: 81.2%
[4]
  viability, T/C: 71.6%
[5]
  viability, T/C: 70.6%
[6]
  viability, T/C: 61.2%
[7]
  viability, T/C: 102%
[8]
  viability, T/C: 88.5%
[9]
  viability, T/C: 83.5%
[10]
  viability, T/C: 73.9%
[11]
  viability, T/C: 69.1%
[12]
  viability, T/C: 54.2%
[13]
  viability, T/C: 102%
[14]
  viability, T/C: 98.8%
[15]
  viability, T/C: 85.2%
[16]
  viability, T/C: 73.3%
[17]
  viability, T/C: 69.7%
[18]
  viability, T/C: 49.3%
[19]
  viability, T/C: 108%
[20]
  viability, T/C: 97.5%
[21]
  viability, T/C: 90.2%
[22]
  viability, T/C: 91.7%
[23]
  viability, T/C: 71.2%
[24]
  viability, T/C: 48.3%
[25]
  viability, T/C: 85.6%
[26]
  viability, T/C: 94%
[27]
  viability, T/C: 88.6%
[28]
  viability, T/C: 85%
[29]
  viability, T/C: 67.6%
[30]
  viability, T/C: 45.7%
[31]
  viability, T/C: 84.1%
[32]
  viability, T/C: 91.2%
[33]
  viability, T/C: 92%
[34]
  viability, T/C: 79%
[35]
  viability, T/C: 58.1%
[36]
  viability, T/C: 39.2%

## CC(Cn1ccc(-c2ccc(C#N)c(Cl)c2)n1)NC(=O)c1cc(C(C)O)[nH]n1 (centres undefined) + Cc1nc(NC(=O)N2CCCC2C(N)=O)sc1-c1ccnc(C(C)(C)C(F)(F)F)c1
Second compound 0.0316 µM
  IC50: > 10 µM
Second compound 0.1 µM
  IC50: > 10 µM
Second compound 0.316 µM
  IC50: > 10 µM
Second compound 1 µM
  IC50: > 10 µM
Second compound 3.16 µM
  IC50: > 10 µM
Second compound 10 µM
  IC50: < 0.0316 µM
[1]
  viability, T/C: 84%
[2]
  viability, T/C: 86.7%
[3]
  viability, T/C: 95.2%
[4]
  viability, T/C: 109%
[5]
  viability, T/C: 98.9%
[6]
  viability, T/C: 91.8%
[7]
  viability, T/C: 96.6%
[8]
  viability, T/C: 89.7%
[9]
  viability, T/C: 97.8%
[10]
  viability, T/C: 94.4%
[11]
  viability, T/C: 92.4%
[12]
  viability, T/C: 92.3%
[13]
  viability, T/C: 95.8%
[14]
  viability, T/C: 85.3%
[15]
  viability, T/C: 85%
[16]
  viability, T/C: 77.3%
[17]
  viability, T/C: 78.3%
[18]
  viability, T/C: 85.3%
[19]
  viability, T/C: 68.8%
[20]
  viability, T/C: 82.4%
[21]
  viability, T/C: 80.9%
[22]
  viability, T/C: 89.9%
[23]
  viability, T/C: 77%
[24]
  viability, T/C: 69.3%
[25]
  viability, T/C: 58.5%
[26]
  viability, T/C: 55.8%
[27]
  viability, T/C: 66.6%
[28]
  viability, T/C: 66.7%
[29]
  viability, T/C: 72.7%
[30]
  viability, T/C: 50.9%
[31]
  viability, T/C: 49%
[32]
  viability, T/C: 43.1%
[33]
  viability, T/C: 48.9%
[34]
  viability, T/C: 42.3%
[35]
  viability, T/C: 43.1%
[36]
  viability, T/C: 46.4%
